Patent publication US4564613A, “Pyridoindole derivatives, compositions and use” (Troponwerke GmbH & Co., priority 1983, dated 1986)

How the values were obtained:
[1] = tested on: ptosis in mice induced by tetrabenazine; assay: Tetrabenazine antagonism (ptosis in mice induced by tetrabenazine); format: in vivo; conditions: Mus musculus, ip, compound intraperitoneally, 20 mg/kg of tetrabenazine intraperitoneally, read-out: ED50 (dose at which the ptosis induced by tetrabenazine is reduced to 50%)
Method: (§1) Some test results for the new compounds of the general formula I which were tested for anxiolytic, nootropic and antidepressive properties are given below. The pilot tests used were inhibition of footshock induced aggression (Tedeschi et al., J. Pharmacol. Exp. Ther. 129, p. 28-34, 1954), for the anxiolytic action and the antitetrabenazine test (J. L. Howard et al., in: Antidepressants: Neurochemical, Behavioral and Clinical Perspectives, edited by S. J. Enna et al., Raven Press N.Y., pages 107-120, 1981) and amphetamine potentiation test (J. L. Howard et al., in: Antidepressants: Neurochemical, Behavioral and Clinical Perspectives, edited by S. J. Enna et al., Raven Press N.Y., pages 107-120, 1981) for the antidepressive action.
Substances having an antidepressive action antagonize the ptosis in mice induced by tetrabenazine. The ED50 value indicates the dose at which the ptosis induced by 20 mg/kg of tetrabenazine intraperitoneally is reduced to 50%.

[2] = tested on: amphetamine-induced stereotype behavior in rats; assay: Amphetamine potentiation (amphetamine-induced stereotype behavior in rats); format: in vivo; conditions: Rattus norvegicus, ip, compound intraperitoneally, 2 mg/kg of DL-amphetamine sulphate intravenous, read-out: ED50 (dose at which the amphetamine-induced behavior is intensified by 50%)
Method: as §1
Substances having an antidepressive action potentiate the amphetamine-induced stereotype behavior in rats.
The ED50 value given is the dose at which the amphetamine-induced behavior is intensified by 50% following intravenous administration of 2 mg/kg of DL-amphetamine sulphate.

Row | SMILES | ED50 [1] [mg/kg] | ED50 [2] [mg/kg]
1 | CN1Cc2c(ccc3c2NCC3)C(c2ccccc2)C1 (centres unmarked) [3 a] | 0.1 | 1.2
2 | CN1Cc2c(ccc3c2N(C)CC3)C(c2ccc(F)cc2)C1 (centres unmarked) [Compound 4, 1,8-Dimethyl-6-(fluorophenyl)-2,3,6,7,8,9-hexahydro-1H-pyrido[4,3-g]indole] | 0.01 | –
3 | CN1Cc2c(ccc3c2NCC3)C(c2ccc(F)cc2)C1 (centres unmarked) [3 b] | 0.01 | 2.2
4 | CN1Cc2c(ccc3cc[nH]c23)C(c2ccccc2)C1 (centres unmarked) [2 a] | 0.3 | 2.4
5 | CN1Cc2c(ccc3cc[nH]c23)C(c2ccc(F)cc2)C1 (centres unmarked) [2 b] | 0.2 | 3.9
6 | CN1Cc2c(ccc3c2NC(=O)C3=O)C(c2ccccc2)C1 (centres unmarked) [1 b] | 2 | –
7 | CN1Cc2c(ccc3c2NC(=O)C3=O)C(c2ccc(F)cc2)C1 (centres unmarked) [1 a] | 1 | –
